In patent US9169279B2, “Crystallization method and bioavailability” (THAR PHARMACEUTICALS, INC., priority 2009, dated 2015):

How the values were obtained:
[1] = room temperature
[2] = Dog PK study: zoledronic acid in serum after IV or oral capsule dosing, enteric or non-enteric coated, with or without excess coformer (LC/MS/MS); assay type: in vivo, Beagle dogs; conditions: beagle, po, 56 mg, Leg 7, 56.0 mg, enteric coated capsule, PO, read-out: Average serum concentration of 5 dogs
Excerpt: This can be attributed to the fact that both animals have historically been used in the safety evaluation and PK screening studies and are recommended by appropriate regulatory agencies. […] Additional tests included ID administration in rats and administration of enteric coated capsules in dogs.
USA. Some animals have surgical catheters (jugular vein and intraduodenum) were implanted to the animals prior to the studies. Beagle dogs from Marshall Farms, N.Y., USA, weighing from (9-12 kg) were used in the studies presented herein. Surgical catheters (jugular vein) were implanted prior to the studies.
The dose volume of each dog was adjusted based upon the average weight of the dog. • ii. […]
Blood samples were placed without the use of an anticoagulant and allowed to sit at room temperature for approximately 30 minutes. Samples were then centrifuged at a temperature of 4° C., at a speed of 13,000 rpm, for 5 minutes. Serum was collected and split into two aliquots and stored frozen (−80° C.) until analysis.
In this study, capsules of particulate materials (zoledronic:DL-lysine:water complex and excess pure DL-lysine).

O.O=P(O)(O)C(O)(Cn1ccnc1)P(=O)(O)O [ZA monohydrate]
Aqueous solubility, Conc. mg/mL [1]: 1.57 mg/mL

NCCCCC(N)C(=O)O.O.O.O=P(O)(O)C(O)(Cn1ccnc1)P(=O)(O)O [ZA: DL-Lysine dihydrate]
Aqueous solubility, Conc. mg/mL [1]: 6.85 mg/mL

NCCCCC(N)C(=O)O.O.O=P(O)(O)C(O)(Cn1ccnc1)P(=O)(O)O [ZA: DL-Lysine monohydrate]
Aqueous solubility, Conc. mg/mL [1]: 13.9 mg/mL

NCCCC[C@H](N)C(=O)O.O.O.O=P(O)(O)C(O)(Cn1ccnc1)P(=O)(O)O [ZA: L-Lysine dihydrate]
Aqueous solubility, Conc. mg/mL [1]: 8.22 mg/mL

O=P(O)(O)C(O)(Cn1ccnc1)P(=O)(O)O [Zoledronic acid monohydrate]
concentration at 0 h ([2]; 0 h): 0 ng/mL
concentration at 10 min ([2]; 10 min): 0 ng/mL
concentration at 0.25 h ([2]; 0.25 h): 0 ng/mL
concentration at 0.5 h ([2]; 0.5 h): 0 ng/mL
concentration at 0.75 h ([2]; 0.75 h): 0 ng/mL
concentration at 1 h ([2]; 1 h): 9.84 ng/mL
concentration at 1.5 h ([2]; 1.5 h): 86.1 ng/mL
concentration at 2 h ([2]; 2 h): 109 ng/mL
concentration at 4 h ([2]; 4 h): 108 ng/mL
concentration at 6 h ([2]; 6 h): 14.2 ng/mL
concentration at 8 h ([2]; 8 h): 4.57 ng/mL
concentration at 24 h ([2]; 24 h): 0.5 ng/mL
